Data on three compounds can be found in patent US20150258062A1, “COMPOSITIONS AND METHODS FOR TREATMENT OF RENAL DISEASE” (priority 2009, published 2015).

Series [1] deals with Outward potassium current. The note with it: Table 1; cited from earlier work.
The next series deals with Inward sodium current. The note with it: Table 1; cited from earlier work.
For the next series, the system named is Inward Calcium current. The following applies: Table 1; cited from earlier work.
Series [2] in a line: Clinic case studies: serum laboratory profile (uric acid, potassium, creatinine, urea nitrogen). It is filed as in vivo, human.
Series [3] is described as follows: Clinic case studies: blood pressure, pulse, body weight, edema, GFR, EKG. The class given is in vivo, human.
Series [4] has as its system ventricular repolarization, QT interval and Torsade. The following applies: cited from earlier work.
Series [5] relates to slow component of the delayed rectifier K+ current (IKs). The following applies: cited from earlier work.
The test system of series [6] is non-diabetic patients already receiving dual therapy with both an ACEI plus an ARB agent. The following applies: after 1 year; non-diabetic patients on ACEI plus ARB; independent of BP changes; cited from earlier work.

With `C[C@]12CCC(=O)C=C1CC[C@@H]1[C@@H]2[C@@H](O)C[C@]2(C=O)[C@@H](C(=O)CO)CC[C@@H]12` [Aldosterone], the “action on outward potassium current” value in series [1] was “No effect”. Besides, in the series on Inward sodium current, the “action on inward sodium current” value is listed as “Incresases”. In the series on Inward Calcium current, the “action on inward calcium current” value is “Increases”.

As to `CC1Cc2ccccc2N1NC(=O)c1ccc(Cl)c(S(N)(=O)=O)c1` (stereo not drawn) [indapamide, 4-chloro-N-(2-methyl-2,3-dihydroindol-1-yl)-3-sulfamoyl-benzamide], the uric acid in series [2] (Case 1, Day 25, indapamide 2.5 mg with losartan 50 mg, terazosin 2 mg) was 7.5 mg/dL. Moreover, in series [2] (Case 1, Day 25, indapamide 2.5 mg with losartan 50 mg, terazosin 2 mg, Day 0 value 2.3), the creatinine is 2.6 mg/dL. In series [2] (Case 1, Day 25, indapamide 2.5 mg with losartan 50 mg, terazosin 2 mg, Day 0 value 46), the urea nitrogen amounted to 36 mg/dL. For the same compound, the serum uric acid in series [2] (Case 4, indapamide 1.25 mg per day with losartan, amlodipine, after 9 months, baseline 7.5) was 7.0 mg/dL. The compound further had a serum potassium in series [2] (Example 3 Case 1, stage 4 CKD, Day 25, on indapamide 2.5 mg, losartan 50 mg, terazosin 2 mg since Day 13, Day 0 value 5.2) of 4.1 mmol/L. For the same compound, the “serum creatinine and urea nitrogen” value in series [2] (Example 3 Case 4, diabetic nephropathy, losartan 100 mg, amlodipine 5 mg, indapamide 1.25 mg per day, after 9 months) was “unchanged”. For the same compound, the “action on outward potassium current” value in series [1] is given as “Slows”. The “action on inward sodium current” value in the series with Inward sodium current is on record as “No effect”. The “action on inward calcium current” value with Inward Calcium current is recorded as “No effect”. Also, in series [3] (Case 1, Day 34, indapamide 2.5 mg with losartan 50 mg, terazosin 2 mg, before spironolactone), the pedal edema entry is listed as “decreased”. Besides, the blood pressure in series [3] (Case 1, Day 34, indapamide 2.5 mg with losartan, terazosin, Day 13 value 142/82) is given as 150/90. The blood pressure in series [3] (Example 3 Case 2, diabetic nephropathy, 6 months, 1 month after indapamide 1.25 mg, diltiazem 300 mg started and losartan raised to 100 mg, before 168/108) is recorded as 145/93. Also, in series [4] (Table 1), the QT dispersion result is on record as “increased”, the QT interval result is “prolongs” and the Torsade entry was “prediposes”. The “QT interval and torsade de pointes in patients” value in series [4] (in the presence of normal electrolytes (Letsas, Alexanian et al. 2006)) was “QT interval prolongation and torsade de pointes”. In series [5], the “effect on IKs” value is “blocks”.

In the case of `CC(=O)S[C@@H]1CC2=CC(=O)CC[C@]2(C)[C@H]2CC[C@@]3(C)[C@@H](CC[C@@]34CCC(=O)O4)[C@H]12` [spironolactone], the “additive reduction of proteinuria” value in series [6] was 58%.
